Data on 18 molecules can be found in patent US6777578B2, “Hydroxyphenstatin and the prodrugs thereof” (Arizona Board of Regents, priority 2000, dated 2004).

Each structure is given as a SMILES string. ≈ marks a conversion by molar mass, not a printed value. Like-named read-outs stand apart in the source and are kept apart here.

Data set [1] deals with tubulin. Nature of the data set: Tubulin polymerization assay. The class given is biochemical. The following applies: read-out: Inhibition of Tubulin Polymerization (μM IC50 ± SD). As to the method: (§1) The tubulin polymerization and colchicine binding assays were performed as described previously (See: […]), except that Beckman DU7400/7500 spectrophotometers equipped with “high performance” temperature controllers were used in the former assay. Unlike the manual control possible with the previously used Gilford spectrophotometers, the polymerization assays required use of programs provided by MDB analytical Associates, South Plainfield, N.J., since the Beckman instruments are microprocessor controlled. The Beckman instruments were unable to maintain 0° C., and the lower temperature in the assays fluctuated between 2 and 4° C. Temperature changes were, however, more rapid than in the Gilford instruments with the jump from the lower temperature to 30° C. taking about 20 sec. and the reverse jump about 100 sec.

For data set [2], the system named is tubulin. Nature of the data set: Colchicine binding assay. The conditions noted are these: [3H]colchicine binding to tubulin. Here is the method: as §1
Data set [3] relates to P388. As to the kind of experiment: Cancer cell growth inhibition, murine P388 lymphocytic leukemia. Type of data set: cell-based. As to the method: (§2) The following measures are used to express drug activity giving the drug dose, which reduces cell growth to a specified percentage of growth:
(§3) ED50 (P388) and GI50 (HTCL) are the drug doses needed to reduce the percent growth to 50%. There is no mathematical difference between ED50 and GI50, which are both calculated using the same formula. The only difference is historical usage.
(§4) Each drug is tested at five (5) doses: 100-10-1-0.1-0.01 μg/ml. Percent Growths are calculated for each dose. The two (or three) doses with growth values above, below, (or near to) 50% growth are used to calculate the ED50/GI50 using a linear regression formula. The log of the dose is used during the regression computation. If no dose yields a growth value under 50%, the results are expressed as: ED50>(highest dose). If no dose yields a growth value higher than 50%, then ED50<(lowest dose). Similar calculations are performed for the TGI at 0% growth, and at −50% growth for the LC50.

In data set [4] the test system is DU-145. As to the kind of experiment: Human cancer cell growth inhibition, prostate DU-145. Type of data set: cell-based. As to the method:
as §2, §3, §4

Data set [5] deals with KM20L2. Nature of the data set: Human cancer cell growth inhibition, colon KM20L2. The class given is cell-based. Here is the method: as §2, §3, §4
In data set [6] the test system is two fungal and eight bacterial strains. As to the kind of experiment: Antibiotic screening against the whole panel. The class given is cell-based. The conditions noted are these: for inhibition of growth of the two fungal and eight bacterial strains tested: at 100 μg/disk. An excerpt: (§5) The new substances were screened against the bacteria Stenotrophomonas maltophilia, Micrococcus luteus, Staphylococcus aureus, Escherichia coli, Enterobacter cloacae, Enterococcus faecalis, Streptococcus pneumoniae, Neisseria gonorrhoeae, and the fungi Candida albicans and Cryptococcus neoformans, according to established disk susceptibility testing protocols.

The subject of data set [7] is NCI-H460. Nature of the data set: Human cancer cell growth inhibition, lung-NSC NCI-H460. The class given is cell-based. Here is the method: as §2, §3, §4
The test system of data set [8] is RPMI-7951. As to the kind of experiment: Human cancer cell growth inhibition, melanoma RPMI-7951. The class given is cell-based. Here is the method: as §2, §3, §4
Data set [9] deals with BXPC-3. Nature of the data set: Human cancer cell growth inhibition, pancreas BXPC-3. The following applies: Pancreas-a. The class given is cell-based. Here is the method: as §2, §3, §4
The test system of data set [10] is NCI 60-cell screen. As to the kind of experiment: NCI 60-cell screen. The class given is cell-based. The following applies: read-out: mean-panel GI50.
Data set [11] deals with SF-295. As to the kind of experiment: Human cancer cell growth inhibition, CNS SF-295. Type of data set: cell-based. As to the method:
as §2, §3, §4

The subject of data set [12] is Micrococcus luteus. Nature of the data set: Disk susceptibility testing, Micrococcus luteus. Type of data set: cell-based.
Source text: as §5

Data set [13] is described as follows: Solubility in distilled water. The class given is physicochemical. The following applies: distilled water at 25° C.
The subject of data set [14] is Stenotrophomonas maltophilia. Nature of the data set: Disk susceptibility testing, Stenotrophomonas maltophilia. Type of data set: cell-based.
Source text: as §5

The test system of data set [15] is Neisseria gonorrhoeae. Nature of the data set: Disk susceptibility testing, Neisseria gonorrhoeae. The class given is cell-based.
Source text: as §5

The test system of data set [16] is Staphylococcus aureus. As to the kind of experiment: Disk susceptibility testing, Staphylococcus aureus. The class given is cell-based.
Source text: as §5

Data set [17] deals with Escherichia coli. As to the kind of experiment: Disk susceptibility testing, Escherichia coli. The class given is cell-based.
Source text: as §5

In data set [18] the test system is Cryptococcus neoformans. Nature of the data set: Disk susceptibility testing, Cryptococcus neoformans. Type of data set: cell-based.
Source text: as §5

Data set [19] deals with Candida albicans. Nature of the data set: Disk susceptibility testing, Candida albicans. Type of data set: cell-based.
Source text: as §5

As a reminder, the IC50 is the midpoint of a concentration-inhibition curve. By GI50 is commonly meant the concentration giving 50% growth inhibition. A word on the melting point: it is the temperature of the solid-liquid transition. The term solubility denotes the dissolved amount per volume that the medium holds.

With `COc1ccc(/C=C\c2cc(OC)c(OC)c(OC)c2)c(O)c1O` [Compound 3a, combretastatin A-1, reference compound], the IC50 in data set [1] was 1.1 ± 0.07 µM. Further, the “% Inhibition of Colchicine Binding ± SD” value in data set [2] is 99.6 ± 0.7%.
`COc1ccc(/C=C\c2cc(OC)c(OC)c(OC)c2)cc1O` [Compound 3b, combretastatin A-4]: in data set [1], the IC50 was found to be […].
Regarding `COc1ccc(/C=C\c2cc(OC)c(OC)c(OC)c2)cc1OP(=O)(O)O` [Compound 3c], the IC50 in [1] was greater than 40 µM.
The molecule `COc1ccc(C(=O)c2cc(OC)c(OC)c(OC)c2)c(O)c1O` [Compound 6a] came in with a melting point of 171.1 to 171.9 °C. Also, the GI50 in data set [3] (Mus musculus, read-out: GI50) came to 0.315 µg/mL (≈ 0.942 µM). Moreover, the GI50 in [4] (Homo sapiens, read-out: GI50) turned out to be 0.048 µg/mL (≈ 0.144 µM). Besides, the IC50 in [1] turned out to be 0.82 ± 0.2 µM. Moreover, the GI50 in [5] (Homo sapiens, KM-20L2, read-out: GI50) is 1.2 µg/mL (≈ 3.59 µM). Further, the “inhibition of growth of the two fungal and eight bacterial strains tested” value in data set [6] is listed as “none of these compounds inhibited growth”. Also, the GI50 in data set [7] (Homo sapiens, read-out: GI50) stood at 0.21 µg/mL (≈ 0.628 µM). In data set [8] (Homo sapiens, read-out: GI50), the GI50 was determined as 0.58 µg/mL (≈ 1.73 µM). Besides, in [9] (Homo sapiens, read-out: GI50), the GI50 was found to be 3.3 µg/mL (≈ 9.87 µM). Also, in [2], the “% Inhibition of Colchicine Binding ± SD” value came to 77 ± 4%. Further, in [10] (60 cell), the GI50 turned out to be 167 nM. The GI50 in data set [11] (Homo sapiens, read-out: GI50) is 0.04 µg/mL (≈ 0.12 µM).
Molecule `COCOc1c(OC)ccc(C(=O)c2cc(OC)c(OC)c(OC)c2)c1OCOC` [Compound 6c, 2′,3′-Bis(methoxymethyloxy)-3,4,4′,5-tetramethoxybenzophenone] came in with a melting point of 70.2 to 71.7 °C. For the same molecule, the GI50 in data set [3] (Mus musculus, read-out: GI50) was greater than 10 µg/mL. In data set [4] (Homo sapiens, read-out: GI50), the GI50 was greater than 10 µg/mL. In addition, the “inhibition of growth of the two fungal and eight bacterial strains tested” value in data set [6] was “none of these compounds inhibited growth”. For the same molecule, in [7] (Homo sapiens, read-out: GI50), the GI50 was greater than 10 µg/mL. Also, in data set [8] (Homo sapiens, read-out: GI50), the GI50 was greater than 10 µg/mL. The GI50 in data set [9] (Homo sapiens, read-out: GI50) was greater than 10 µg/mL. The GI50 in data set [11] (Homo sapiens, read-out: GI50) is greater than 10 µg/mL.
Consider `COc1cc(C(=O)c2ccc(OC)c(OP(=O)(OCc3ccccc3)OCc3ccccc3)c2OP(=O)(OCc2ccccc2)OCc2ccccc2)cc(OC)c1OC` [Compound 6d, 2′,3′-O-Di-(bisbenzylphosphoryl)-hydroxyphenstatin], for which the GI50 in [3] was 2.55 µg/mL (≈ 2.98 µM); in [4] it was greater than 10 µg/mL; in data set [7], greater than 10 µg/mL; in [8] it was greater than 10 µg/mL; in [9], greater than 10 µg/mL; in data set [11] it was greater than 10 µg/mL. Moreover, in [12], the “Minimum inhibitory Concentration (μg/disk)” value was 50-100 μg/disk.
In the case of `COc1cc(C(=O)c2ccc(OC)c(OP(=O)([O-])[O-])c2OP(=O)([O-])[O-])cc(OC)c1OC.[Na+].[Na+].[Na+].[Na+]` [Compound 6e, Sodium Hydroxyphenstatin Diphosphate], the GI50 in [3] was determined as 0.0336 µg/mL; in data set [4], 0.3 µg/mL; in [5], 5.9 µg/mL; in data set [7], 0.35 µg/mL; in data set [9], 5.3 µg/mL; in data set [10] (NCI 60-cell screen, mean of panel) it was 167 nM. The same molecule returned a GI50 in data set [11] of 0.23 µg/mL. The IC50 in data set [1] is greater than 40 µM. Besides, in data set [6], the “antifungal and/or antibacterial action” value was “did not”. The molecule further yielded a solubility in data set [13] of 100 mg/mL.
`COc1cc(C(=O)c2ccc(OC)c(OP(=O)([O-])[O-])c2OP(=O)([O-])[O-])cc(OC)c1OC.[Li+].[Li+].[Li+].[Li+]` [Compound 6f, Lithium Hydroxyphenstatin Diphosphate] gave a solubility in data set [13] of 25 mg/mL.
Still for that read-out and setting: with `COc1cc(C(=O)c2ccc(OC)c(OP(=O)([O-])[O-])c2OP(=O)([O-])[O-])cc(OC)c1OC.[Ca+2].[Ca+2]` [Compound 6h, Calcium Hydroyphenstatin Diphosphate] the figure was less than 1 mg/mL.
In the case of `COc1ccc(Br)c(O)c1O` [Compound 7a, 1-Bromo-2,3dihydroxy-4methoxy-benzene], the melting point fell in the range of 122.3 to 124.3 °C. In addition, the “Minimum inhibitory Concentration (μg/disk)” value in [14] is given as 25-50 μg/disk. For the same molecule, the “Minimum inhibitory Concentration (μg/disk)” value in [15] was less than 6.25 μg/disk. Further, the “Minimum inhibitory Concentration (μg/disk)” value in data set [16] is on record as 25-50 μg/disk. Further, in [17], the “Minimum inhibitory Concentration (μg/disk)” value was 50-100 μg/disk.
The molecule `COc1ccc(Br)c(O[Si](C)(C)C(C)(C)C)c1O[Si](C)(C)C(C)(C)C` [Compound 7b, 1-Bromo-2,3-bis(tert-butyldimethylsilyl-oxy)-4-methoxy-benzene] came in with a melting point of 68.9 to 69.6 °C. In [6], the “inhibition of growth of the two fungal and eight bacterial strains tested” value is “none of these compounds inhibited growth”.
Consider `COc1cc(C(=O)N2CCOCC2)cc(OC)c1OC` [Compound 8a, N-(3,4,5Trimethoxybenzoyl)-morpholine], for which, in [6], the “inhibition of growth of the two fungal and eight bacterial strains tested” value is recorded as “none of these compounds inhibited growth”.
For `COc1cccc(C=O)c1OC(C)=O` [Compound 10, 2-Acetoxy-3methoxy-benzaldehyde], the melting point was in the range of 75.4 to 76.2 °C. Also, in data set [18], the “Minimum inhibitory Concentration (μg/disk)” value was 25-50 μg/disk. In [14], the “Minimum inhibitory Concentration (μg/disk)” value is given as 50-100 μg/disk.
Take `COc1ccc(Br)c(C=O)c1OC(C)=O` [Compound 11, 2-Acetoxy-3methoxy-6bromo-benzaldehyde]: the melting point fell in the range of 121.6 to 123.4 °C. Also, the “Minimum inhibitory Concentration (μg/disk)” value in data set [18] is listed as 6.25-12.5 μg/disk. The “Minimum inhibitory Concentration (μg/disk)” value in data set [19] was 12.5-25 μg/disk. The “Minimum inhibitory Concentration (μg/disk)” value in data set [15] was 25-50 μg/disk. In addition, the “Minimum inhibitory Concentration (μg/disk)” value in [17] is recorded as 50-100 μg/disk.
As to `COc1ccc(Br)c(C=O)c1O` [Compound 12, 2-Hydroxy-3-methoxy-6bromo-benzaldehyde], the “Minimum inhibitory Concentration (μg/disk)” value in data set [18] was 12.5-25 μg/disk; in data set [19] it was 50-100 μg/disk; in data set [15], 12.5-25 μg/disk.
`COc1cc(C(=O)c2ccc(OC)c(OC)c2OC)cc(OC)c1OC` [Compound 13, 2′,3,3′,4,4′,5-Hexamethoxybenzophenone] registered a melting point of 124.6 to 125.9 °C. Also, the “inhibition of growth of the two fungal and eight bacterial strains tested” value in [6] is listed as “none of these compounds inhibited growth”.
For the molecule `COc1cc(C(O)c2ccc(OC)c(OC)c2OC)cc(OC)c1OC` (stereo not shown) [Compound 14, 2′,3,3′,4,4′,5Hexamethoxydiphenylcarbinol], in data set [6], the “inhibition of growth of the two fungal and eight bacterial strains tested” value was “none of these compounds inhibited growth”.
As to `COCOc1c(OC)ccc(C(O)c2cc(OC)c(OC)c(OC)c2)c1OCOC` (stereo not shown) [Compound 15, 2′,3′-Bis(methoxymethyloxy)-3,4,4′,5tetramethoxydiphenylcarbinol], the melting point was in the range of 79.9 to 81.8 °C. In addition, in [6], the “inhibition of growth of the two fungal and eight bacterial strains tested” value is given as “none of these compounds inhibited growth”.
